The values that follow come from patent US10869846B2, “N-acetylcysteine amide (NAC amide) in the treatment of diseases and conditions associated with oxidative stress” (SENTIENT LIFESCIENCES, INC., priority 2005, dated 2020).

This test deals with Sprague Dawley rats. Put plainly: GSH and CYS levels in tissues after 6Gy total-body x-ray radiation. The note with it: for CYS level / GSH level / CYS Mean / GSH Mean: 6Gy total-body x-ray, 500 mg/kg orally; for CYS level / GSH level: individual animals; for CYS Mean / GSH Mean: n = 3. It is filed as in vivo, rat. Here is the method: Animal studies: The irradiation of rats was performed at the Radiation Oncology Department of the Phelps County Regional Medical Center in Rolla, Mo., using a 16 MeV beam generated by a Varian linear accelerator, model Clinac 1800, and in accordance with the standards of humane laboratory animal protocols. A 20×20 or 25×25 cm field was used and output factors were checked once a week. Twelve animals were divided into 4 groups each containing 3 animals (Control, XRT, NAC amide+XRT and NAC+XRT). The radiation (XRT) control received whole body irradiation by 6 Gy of 16 MeV electrons. The NAC amide+XRT group received 500 mg/kg/day NAC amide immediately before irradiation and for three days after until sacrifice. The rats were anesthetized and heparinized blood was collected via cardiopuncture. Following sacrifice, liver, lung, brain and spleen were removed and stored at −70° C. until homogenization.
All experiments were performed using adult Albino SASCO Sprague Dawley female rats weighing about 250 g, which were purchased from Charles River Laboratories Inc. (Portage, Mich.). Twelve rats were shipped in paper crates (4 in each crate). Rats were delivered with a certificate including serological, bacteriological, pathological parasitological information. They were divided into 4 cages (3 rats in each cage) and kept in a temperature controlled (20° C.) room equipped to maintain a 12 h light-dark cycle. Standard rat chow (Purina rat chow) and tap water were supplied in individual glass bottle and given ad libitum. Water was changed daily. Weights of the animal were taken before giving the NAC amide treatment solution and amount of food eaten and water consumed was not measured because NAC amide was given orally but not in the drinking water or food.
NAC amide was provided by Novetide Ltd (Haifa Bay, Israel) including certificate of analysis and MSDS (lot #40233-64). NAC amide feeding solution was prepared freshly each day right before the administration by weighing 1.25 g NAC amide solid sample (Type HR-120 electronic balance, A&D Company limited, Japan. S/N: 12202464) and adding into 10 ml PBS solution and put on ice. One ml of this solution was administrated (gavaged) per rat orally by using animal feeding biomedical needles and 3 ml BD Luer-Lok Tip syringes. Rats received one-dose total-body 6 Gy/16 MeV x-ray radiation and 3 rats in each group were held in a covered bucket and received radiation at the same time. Each day at the same time, 500 mg/Kg body weight of NAC amide was administrated to the animals.
For GSH and CYS levels, 250 μL tissue homogenate was used to react with 750 μL NPM solution, therefore, the total volume was 1000 μL.
Oxidative Stress Parameters in Animals: After the blood samples were drawn, the animals were perfused by a cold antioxidant buffer first and then liver, brain and kidney samples were collected aseptically, rinsed in ice-cold saline and placed in petri dishes maintained on ice. The tissue samples kept at −70° C. for the GSH, GSSG, and MDA determinations were made.
Glutathione (GSH) and Glutathione Disulfide (GSSG) Determination: Cells or tissue samples were homogenized on ice and derivatized with N-(1-pyrenyl)-maleimide (NPM). The derivatized samples were injected onto a 3 μm C18 column (Column Engineering) in a reverse phase HPLC system with a mobile phase of 35% water, 65% acetonitrile containing 1 mL/L of acetic acid and o-phosphoric acid (R. Winters, et al., Anal. Biochem., 227:14-21 (1995) and H. H. Draper et al., Free Rad. Biol. Med., 15:353-363 (1993)). Malondialdehyde (MDA) determinations were made as described in J. Gutteridge, Anal. Biochem., 69: 518-526 (1975).

Setting [1] is: BRAIN, listed as AD4, 500 mg/kg.
Setting [2] is: KIDNEY, listed as AD4, 500 mg/kg.
Setting [3] is: LIVER, listed as AD4, 500 mg/kg.
The mark [4] stands for this setting: PLASMA, listed as AD4, 500 mg/kg.

Where “and” joins values, the source holds several entries; their conditions need not be identical. Equal entries are not always repeated. Marks after values point to notes of the source that are not given here.

Turning to N-acetylcysteine amide [NAC amide], the CYS level was 4.47 nmol/mg and 4.32 nmol/mg and 4.26 nmol/mg under setting [1]; 16.91 nmol/mg and 11.09 nmol/mg and 10.81 nmol/mg under setting [2]; 1.51 nmol/mg and 1.53 nmol/mg (2×) under setting [3]; 1.43 nmol/mg and 1.61 nmol/mg and 0.91 nmol/mg (LUNG, listed as AD4, 500 mg/kg); 16.00 nmol/mg and 15.45 nmol/mg and 15.40 nmol/mg under setting [4]. Besides, the GSH level reads like this: under setting [1], 7.93 nmol/mg and 7.84 nmol/mg and 6.98 nmol/mg; under setting [2], 4.39 nmol/mg and 6.22 nmol/mg and 5.02 nmol/mg; under setting [3], 17.45 nmol/mg and 16.73 nmol/mg and 17.50 nmol/mg; (LUNG, listed as AD4, 500 mg/kg) 5.12 nmol/mg and 5.27 nmol/mg and 6.28 nmol/mg; under setting [4], 7.10 nmol/mg and 7.44 nmol/mg and 7.94 nmol/mg. Further, the “CYS Mean” value by setting is: (BRAIN) 4.4 nmol/mg; (KIDNEY) 12.9** nmol/mg; (LIVER) 1.5 nmol/mg; (LUNG) 1.3 nmol/mg; (PLASMA) 15.6** nmol/mg. In addition, the “GSH Mean” value is, setting by setting: (BRAIN) 7.6** nmol/mg; (KIDNEY) 5.2 nmol/mg; (LIVER) 17.2** nmol/mg; (LUNG) 5.6 nmol/mg; (PLASMA) 7.6** nmol/mg. Moreover, the “thiol levels in plasma and liver” value (after radiation exposure) was “significantly increases”.
Consider `CC(=O)N[C@@H](CS)C(=O)O` [NAC, N-acetylcysteine], for which the CYS level is, setting by setting: (BRAIN, 500 mg/kg) 4.16 nmol/mg and 3.76 nmol/mg and 4.47 nmol/mg; (KIDNEY, 500 mg/kg) 12.23 nmol/mg and 12.16 nmol/mg and 11.03 nmol/mg; (LIVER, 500 mg/kg) 1.25 nmol/mg and 1.61 nmol/mg and 1.51 nmol/mg; (LUNG, 500 mg/kg) 1.16 nmol/mg and 2.64 nmol/mg and 2.43 nmol/mg; (PLASMA, 500 mg/kg) 14.64 nmol/mg and 13.75 nmol/mg and 14.36 nmol/mg. The GSH level was 7.32 nmol/mg and 6.74 nmol/mg and 7.15 nmol/mg (BRAIN, 500 mg/kg); 5.95 nmol/mg and 6.44 nmol/mg and 6.33 nmol/mg (KIDNEY, 500 mg/kg); 15.23 nmol/mg and 16.80 nmol/mg and 16.93 nmol/mg (LIVER, 500 mg/kg); 5.19 nmol/mg and 7.24 nmol/mg and 4.95 nmol/mg (LUNG, 500 mg/kg); 7.08 nmol/mg and 6.18 nmol/mg and 6.27 nmol/mg (PLASMA, 500 mg/kg). The “CYS Mean” value is, setting by setting: (BRAIN) 4.1 nmol/mg; (KIDNEY) 11.8** nmol/mg; (LIVER) 1.5 nmol/mg; (LUNG) 1.9 nmol/mg; (PLASMA) 14.2*** nmol/mg. Besides, the “GSH Mean” value is on record as 7.0 nmol/mg (BRAIN); 6.2** nmol/mg (KIDNEY); 16.3 nmol/mg (LIVER); 5.8 nmol/mg (LUNG); 6.5**/*** nmol/mg (PLASMA). Under “after radiation exposure”, the “GSH levels in tissues” value is recorded as “does not increase”.
